Source: US10080739B2, “Aryl imidazoles and their use as anti-cancer agents” (Aptose Biosciences Inc., priority 2003, dated 2018)

How the values were obtained:
[1] = tested on: Saccharmyces cerevisiae strains that have mutations in genes related to cell cycle control and DNA repair damage; details: panel of six yeast strains, single concentration; NCI/DTP data; cited from earlier work
[2] = NCI/DTP data; cited from earlier work
[3] = tested on: panel of 60 human cancer cell lines; test: NCI/DTP in vitro anticancer screen, 60 cell lines; format: cell-based; details: NCI panel of 60 human cancer cell lines, value per compound (FIG. 10A)
Method: The twenty-three compounds of Formula I shown below were evaluated for their antiproliferative effects in a panel of 60 human cancer cell lines as part of the in vitro anticancer screening services provided by the DTP (Developmental Therapeutics Program) of the US National Cancer Institute (NCI) U.S. National Cancer Institute (NCI) of the National Institutes of Health (NIH) in […], Md.
The NCI conducts a standard 48/72 hour 60 cell line assay and an in vitro time course assay as described in Alley et al. (Cancer Res (1988) 48:589). In the standard 60 cell line assay, a minimum of 5 concentrations of the test compound are tested at 10-fold dilutions against 60 cell lines and cell growth is assayed at 48 and 72 hours using a sulphorhodamine B assay. For the time course analysis, tumour cells are treated with the test compound at various time points, then washed and grown in medium free of the test compound until the end of the experiment at 144 hrs. This assay employs 20% FBS to better approximate the minimum c×t (concentrations and times) test compound exposure conditions that are required to achieve activity in vivo. Cell growth is quantified by an MTT assay (similar to the XTT assay described above) and the concentration of the test compound required for growth inhibition is determined. […]

[4] = tested on: HT29 colon adenocarcinoma cells; test: morphological changes (vacuoles), HT29; format: cell-based, human; details: treatment for 24 hours
Text: These vacuoles are not formed in DMSO- or doxorubicin-treated cells. Moreover, the nuclear membrane is no longer evident in the phase-contrast images of cells treated with compound 45, even though the nucleus is still intact, as shown by DAPI staining.

Cc1ccccc1-c1nc2c3ccccc3c3ccccc3c2[nH]1 [NCI #338970]
activity in Stage0 testing in the Yeast Anticancer Drug Screen [1]: active
activity in the In Vivo Anticancer Drug Screen [2]: None of these three compounds showed any activity

Cc1[nH]c2ccccc2c1-c1nc2c3cccnc3c3ncccc3c2[nH]1 [Compound 90]
GI50 (growth inhibition by 50%) [3]: most effective compound

COc1cccc2c1C(=O)c1c(O)c3c(c(O)c1C2=O)C[C@@](O)(C(=O)CO)C[C@@H]3O[C@H]1C[C@H](N)[C@H](O)[C@H](C)O1 [doxorubicin, reference compound]
formation of vacuoles [4]: not formed
